From patent US20110086759A1, “CHEMICAL COMPOUNDS” (SYNGENTA CROP PROTECTION, INC., priority 2007, published 2011) come the findings set out here.

Holding throughout (format): in vivo
Test [1] concerns Solanum nigrum (SOLNI). As to the kind of experiment: Pre-emergence biological efficacy, glasshouse pot test. The settings on record: 312 h. On the procedure:
(§1) Seeds of Alopecurus myosuroides (ALOMY), Setaria faberi (SETFA), Echinochloa crus-galli (ECHCG), Solanum nigrum (SOLNI), Amaranthus retoflexus (AMARE) and Ipomea hederaceae (IPOHE) were sown in standard soil in pots. After cultivation for one day under controlled conditions in a glasshouse (at 24/16° C., day/night; 14 hours light; 65% humidity), the plants were sprayed with an aqueous spray solution derived from the formulation of the technical active ingredient in acetone/water (50:50) solution containing 0.5% Tween 20 (polyoxyethelyene sorbitan monolaurate, CAS RN 9005-64-5) to give a final dose of 1000 or 250 g/ha of test compound.
(§2) The test plants were then grown under controlled conditions in the glasshouse (at 24/16° C., day/night; 14 hours light; 65% humidity) and watered twice daily. After 13 days the test was evaluated (100=total damage to plant; 0=no damage to plant).

Test [2] has as its system Alopecurus myosuroides (ALOMY). The description is as above. The settings on record: 312 h. On the procedure:
as §1, §2

Test [3] concerns Amaranthus retoflexus (AMARE). Described as above. The settings on record: Amaranthus retroflexus, 312 h. The procedure:
as §1, §2

Test [4] deals with Echinochloa crus-galli (ECHCG). The test is described as above. As to conditions: 312 h. On the procedure:
as §1, §2

Test [5] deals with Ipomea hederaceae (IPOHE). The test is described as above. The settings on record: Ipomoea hederacea, 312 h. The procedure: as §1, §2
The subject of test [6] is Setaria faberi (SETFA). The description is as above. As to conditions: 312 h. On the procedure: as §1, §2
Test [7] deals with Solanum nigrum (SOLNI). As to the kind of experiment: Post-emergence biological efficacy, glasshouse pot test. As to conditions: 312 h. On the procedure:
as §1, with “8 days” for “one day”
(§3) The test plants were then grown on under controlled conditions in a glasshouse (at 24/16° C., day/night; 14 hours light; 65% humidity) and watered twice daily. After 13 days the test was evaluated (100=total damage to plant; 0=no damage to plant).

The subject of test [8] is Alopecurus myosuroides (ALOMY). The test is described as above. As to conditions: 312 h. The procedure: as §1, with “8 days” for “one day”
as §3

Test [9] deals with Amaranthus retoflexus (AMARE). Described as above. As to conditions: Amaranthus retroflexus, 312 h. On the procedure: as §1, with “8 days” for “one day”
as §3

For test [10], the system named is Echinochloa crus-galli (ECHCG). The test is described as above. The settings on record: 312 h. The procedure:
as §1, with “8 days” for “one day”
as §3

Test [11] has as its system Ipomea hederaceae (IPOHE). The description is as above. As to conditions: Ipomoea hederacea, 312 h. On the procedure: as §1, with “8 days” for “one day”
as §3

Test [12] relates to Setaria faberi (SETFA). Described as above. The settings on record: 312 h. On the procedure: as §1, with “8 days” for “one day”
as §3

Where [13] appears, read: pre-emergence, 1,000 g/ha, evaluated after 13 days (100=total damage; 0=no damage), read-out: Percentage damage SOLNI.
Where [14] appears, read: pre-emergence, 1,000 g/ha, evaluated after 13 days (100=total damage; 0=no damage), read-out: Percentage damage ALOMY.
Where [15] appears, read: pre-emergence, 1,000 g/ha, evaluated after 13 days (100=total damage; 0=no damage), read-out: Percentage damage AMARE.
Where [16] appears, read: pre-emergence, 1,000 g/ha, evaluated after 13 days (100=total damage; 0=no damage), read-out: Percentage damage ECHCG.
The mark [17] stands for this setting: pre-emergence, 1,000 g/ha, evaluated after 13 days (100=total damage; 0=no damage), read-out: Percentage damage IPOHE.
Where [18] appears, read: pre-emergence, 1,000 g/ha, evaluated after 13 days (100=total damage; 0=no damage), read-out: Percentage damage SETFA.
[19] abbreviates: post-emergence, 1,000 g/ha, evaluated after 13 days (100=total damage; 0=no damage), read-out: Percentage damage caused to weed species, SOLNI.
Setting [20] is: post-emergence, 1,000 g/ha, evaluated after 13 days (100=total damage; 0=no damage), read-out: Percentage damage caused to weed species, ALOMY.
[21] abbreviates: post-emergence, 1,000 g/ha, evaluated after 13 days (100=total damage; 0=no damage), read-out: Percentage damage caused to weed species, AMARE.
Where [22] appears, read: post-emergence, 1,000 g/ha, evaluated after 13 days (100=total damage; 0=no damage), read-out: Percentage damage caused to weed species, ECHCG.
Where [23] appears, read: post-emergence, 1,000 g/ha, evaluated after 13 days (100=total damage; 0=no damage), read-out: Percentage damage caused to weed species, IPOHE.
The mark [24] stands for this setting: post-emergence, 1,000 g/ha, evaluated after 13 days (100=total damage; 0=no damage), read-out: Percentage damage caused to weed species, SETFA.
The mark [25] stands for this setting: pre-emergence, rate 1,000 g/ha, evaluated after 13 days (100=total damage to plant; 0=no damage), read-out: Percentage damage caused to weed species, SOLNI.
Where [26] appears, read: pre-emergence, rate 1,000 g/ha, evaluated after 13 days (100=total damage to plant; 0=no damage), read-out: Percentage damage caused to weed species, ALOMY.
Setting [27] is: pre-emergence, rate 1,000 g/ha, evaluated after 13 days (100=total damage to plant; 0=no damage), read-out: Percentage damage caused to weed species, AMARE.
Where [28] appears, read: pre-emergence, rate 1,000 g/ha, evaluated after 13 days (100=total damage to plant; 0=no damage), read-out: Percentage damage caused to weed species, ECHCG.
The mark [29] stands for this setting: pre-emergence, rate 1,000 g/ha, evaluated after 13 days (100=total damage to plant; 0=no damage), read-out: Percentage damage caused to weed species, IPOHE.
Where [30] appears, read: pre-emergence, rate 1,000 g/ha, evaluated after 13 days (100=total damage to plant; 0=no damage), read-out: Percentage damage caused to weed species, SETFA.
[31] abbreviates: Rate 1,000 g/ha, post-emergence spray, evaluated after 13 days (100=total damage to plant; 0=no damage to plant), read-out: Percentage damage caused to weed species, post-emergence, SOLNI.
Where [32] appears, read: Rate 1,000 g/ha, post-emergence spray, evaluated after 13 days (100=total damage to plant; 0=no damage to plant), read-out: Percentage damage caused to weed species, post-emergence, ALOMY.
The mark [33] stands for this setting: Rate 1,000 g/ha, post-emergence spray, evaluated after 13 days (100=total damage to plant; 0=no damage to plant), read-out: Percentage damage caused to weed species, post-emergence, AMARE.
[34] abbreviates: Rate 1,000 g/ha, post-emergence spray, evaluated after 13 days (100=total damage to plant; 0=no damage to plant), read-out: Percentage damage caused to weed species, post-emergence, ECHCG.
Setting [35] is: Rate 1,000 g/ha, post-emergence spray, evaluated after 13 days (100=total damage to plant; 0=no damage to plant), read-out: Percentage damage caused to weed species, post-emergence, IPOHE.
The mark [36] stands for this setting: Rate 1,000 g/ha, post-emergence spray, evaluated after 13 days (100=total damage to plant; 0=no damage to plant), read-out: Percentage damage caused to weed species, post-emergence, SETFA.

In the case of `COC(=O)c1nc(C2CC2)nc(NC(C)c2ccc(C)cc2C)c1Cl` (stereo not drawn) [Compound 4-183, 5-Chloro-2-cyclopropyl-4-[1-(2,4-dimethyl-phenyl)ethylamino]-6-methoxycarbonyl-pyrimidine], the pest or weed control at 1000 g/ha worked out at 0% in the test on Solanum nigrum (SOLNI) [1] (setting [13]); 0% in test [2] (setting [14]); 30% in [3] (setting [15]); 0% in test [4] (setting [16]); 20% in test [5] (setting [17]); 0% with Setaria faberi (SETFA) [6] (setting [18]). In addition, the pest or weed control at 1000 g/ha is 40% with Solanum nigrum (SOLNI) [7] (setting [19]); 10% in test [8] (setting [20]); 70% in test [9] (setting [21]); 10% in [10] (setting [22]); 60% in test [11] (setting [23]); 20% in the test with Setaria faberi (SETFA) [12] (setting [24]).
As for `COC(=O)c1nc(C2CC2)nc(NC2(/C=C/c3ccc(C)cc3)CC2)c1Cl` [Compound 4-25, 5-Chloro-2-cyclopropyl-6-methoxycarbonyl-4-{1-[2-(4-methylphenyl)-ethenyl]-cyclopropylamino}-pyrimidine], the pest or weed control at 1000 g/ha with Solanum nigrum (SOLNI) [1] (setting [13]) worked out at 60%; in [2] (setting [14]) it was 10%; in [3] (setting [15]), 100%; in test [4] (setting [16]), 10%; in test [5] (setting [17]), 30%; with Setaria faberi (SETFA) [6] (setting [18]), 0%. The pest or weed control at 1000 g/ha turned out to be 80% with Solanum nigrum (SOLNI) [7] (setting [19]); 40% in [8] (setting [20]); 100% in [9] (setting [21]); 60% in [10] (setting [22]); 100% in [11] (setting [23]); 60% with Setaria faberi (SETFA) [12] (setting [24]).
`COC(=O)c1nc(-c2ccc(Cl)cc2C(F)(F)F)nc(NCc2ccco2)c1Cl` [Compound 220-48, 5-Chloro-2-(4-chloro-2-trifluoromethyl-phenyl)-4-(furan-2-ylmethylamino)-6-methoxycarbonyl-pyrimidine]: the pest or weed control at 1000 g/ha was determined as 0% in the test on Solanum nigrum (SOLNI) [1] (setting [25]); 0% in [2] (setting [26]); 20% in [3] (setting [27]); 0% in test [4] (setting [28]); 0% in test [5] (setting [29]); 0% with Setaria faberi (SETFA) [6] (setting [30]). The pest or weed control at 1000 g/ha was 20% with Solanum nigrum (SOLNI) [7] (setting [31]); 20% in test [8] (setting [32]); 40% in test [9] (setting [33]); 0% in [10] (setting [34]); 10% in test [11] (setting [35]); 0% in the test on Setaria faberi (SETFA) [12] (setting [36]).
As to `COC(=O)c1nc(C2CC2)nc(N[C@@H]2c3ccccc3C[C@@H]2O)c1Cl` [4-37 (1R,2S), 5-Chloro-2-cyclopropyl-4-[(1R, 2S)-2-hydroxy-indan-1-ylamino]-6-methoxycarbonyl-pyrimidine], the pest or weed control at 1000 g/ha in the test with Solanum nigrum (SOLNI) [1] (setting [13]) stood at 100%; in test [2] (setting [14]) it was 50%; in [3] (setting [15]), 100%; in test [4] (setting [16]) it was 60%; in test [5] (setting [17]) it was 100%; in the test with Setaria faberi (SETFA) [6] (setting [18]), 80%. Also, the pest or weed control at 1000 g/ha in the test on Solanum nigrum (SOLNI) [7] (setting [19]) stood at 100%; in test [8] (setting [20]), 30%; in [9] (setting [21]), 100%; in test [10] (setting [22]), 60%; in test [11] (setting [23]) it was 100%; in the test on Setaria faberi (SETFA) [12] (setting [24]) it was 70%.
Turning to `CC(C)OC(=O)c1nc(C2CC2)nc(NCc2ccco2)c1Cl` [Compound 197-125, 5-Chloro-2-cyclo-propyl-4-(2-furanylmethyl-amino)-6-iso-propoxycarbonyl-pyrimidine], the pest or weed control at 1000 g/ha with Solanum nigrum (SOLNI) [1] (setting [25]) is 90%; in [2] (setting [26]) it was 50%; in [3] (setting [27]) it was 100%; in test [4] (setting [28]) it was 70%; in test [5] (setting [29]) it was 100%; in the test with Setaria faberi (SETFA) [6] (setting [30]), 70%. In addition, the pest or weed control at 1000 g/ha came out at 100% with Solanum nigrum (SOLNI) [7] (setting [31]); 50% in test [8] (setting [32]); 100% in test [9] (setting [33]); 70% in test [10] (setting [34]); 100% in test [11] (setting [35]); 100% in the test on Setaria faberi (SETFA) [12] (setting [36]).
For `COC(=O)c1nc(C2CC2)nc(N[C@H](CO)CSCc2ccccc2)c1Cl` [4-276 (R), 5-Chloro-2-cyclopropyl-4-[(1R)-1-hydroxymethyl-2-phenylmethylthio-ethylamino]-6-methoxycarbonyl-pyrimidine], the pest or weed control at 1000 g/ha with Solanum nigrum (SOLNI) [1] (setting [13]) was 90%; in [2] (setting [14]) it was 20%; in test [3] (setting [15]) it was 100%; in test [4] (setting [16]) it was 30%; in [5] (setting [17]), 80%; in the test with Setaria faberi (SETFA) [6] (setting [18]), 30%. In addition, the pest or weed control at 1000 g/ha in the test on Solanum nigrum (SOLNI) [7] (setting [19]) turned out to be 80%; in [8] (setting [20]) it was 20%; in test [9] (setting [21]), 100%; in test [10] (setting [22]), 30%; in test [11] (setting [23]), 40%; in the test with Setaria faberi (SETFA) [12] (setting [24]) it was 40%.
